Patent US20260097133A1, “EPIGENETIC EDITING TOOL FOR TARGETING HEPATITIS B VIRUS GENE” (priority 2023, published 2026)

What was measured:
[1] = test system: type D HBV core antigen (HBcAg) reporter cell line; test: sgRNA lentiviral library screening, HBcAg reporter cell line (NGS reads in GFP-negative cells); format: cell-based; settings: sgRNA in GFP-negative cell population, day 14 after transfection of EPIREG
Excerpt: (§1) In this example, the type D HBV X protein (HBx), core antigen (HBcAg), and surface antigen (HBsAg) reporter cell lines were used for library screening. First, a sgRNA cell library of type D HBV gene was constructed using a reporter cell line according to the method described in example 1. The sgRNA library was packaged into lentivirus to obtain a sgRNA lentiviral library (carrying red fluorescence), the reporter cell line was infected with the lentiviral library, and the red fluorescence was sorted to obtain the sgRNA cell library. Each cell in this sorted cell library integrated a single sgRNA in the library while the cell itself carried a reporter sequence (carrying green fluorescence). The EPIREG tool described in example 2 (the amino acid sequence of the tool was SEQ ID NO: 1194) (carrying blue fluorescence) was transfected and delivered into a cell library carrying both sgRNA and reporter sequences. Red/green/blue fluorescent triple-positive cells were sorted using a flow cytometer and cultured long-term. The EPIREG transfected into the cells could work together with the sgRNA to silence GFP in the reporter. On the day 14 after transfection, the GFP-negative cell population in the cell library was sorted, the genomic DNA of the negative cell population was extracted for NGS sequencing. The sgRNAs with higher sequencing reads in the negative cell population were compared using the untreated cell library as a control reference, so as to obtain the candidate sgRNAs that could play an editing role corresponding to each reporter, respectively (the schematic diagram of this screening scheme is shown in FIG. 6, and the analysis method is referenced to the literature DOI: 10.1186/s13059-014-0554-4). The functionally validated sgRNAs for each reporter cell line are summarized in the following table (arranged by the starting position of the target sequence of each sgRNA).

[2] = test system: type D HBV X protein (HBx) reporter cell line; test: sgRNA lentiviral library screening, HBx reporter cell line (NGS reads in GFP-negative cells); format: cell-based; settings: sgRNA in GFP-negative cell population, day 14 after transfection of EPIREG
Excerpt: as §1

Substance	Log2 FC [1]	Log2 FC [2]
39 (guide AACCCCCACTGGCTGGGGCT; listed as DNA, chemistry not fully specified) [compound 39]	3.4538	
70 (guide ACAAGAGTTGCCTGAACTTT; listed as DNA, chemistry not fully specified) [compound 70]	2.5329	
74 (guide ACAATGCTCAGGAGACTCTA; listed as DNA, chemistry not fully specified) [compound 74]	2.1202	
81 (guide ACACGGTCCGGCAGATGAGA; listed as DNA, chemistry not fully specified) [compound 81]	2.0776	
113 (guide ACGATGTATATTTGCGGGAG; listed as DNA, chemistry not fully specified) [compound 113]	2.0632	
120 (guide ACTACTAGGTCTCTAGATGC; chemistry not given here) [compound 120]	2.9841	
139 (guide AGACACCAAATACTCTATAA; listed as DNA, chemistry not fully specified) [compound 139]	2.8391	
197 (guide AGGTCTGGAGCAAACATTAT; chemistry not given here) [compound 197]		3.6817
200 (guide AGGTGCGCCCCGTGGTCGGT; listed as DNA, chemistry not fully specified) [compound 200]		7.535
204 (guide AGGTTCCACGCACGCGCTGA; listed as DNA, chemistry not fully specified) [compound 204]		3.0712
225 (guide ATACCGCCTCAGCTCTGTAT; listed as DNA, chemistry not fully specified) [compound 225]	3.966	
249 (guide ATGACCAAGCCCCAGCCAGT; listed as DNA, chemistry not fully specified) [compound 249]	2.8648	5.9752
254 (guide ATGGATACGATGTATATTTG; listed as DNA, chemistry not fully specified) [compound 254]		3.4564
257 (guide ATGGGCCATCAGCGCGTGCG; listed as DNA, chemistry not fully specified) [compound 257]		6.5564
305 (guide CACAGAAAGGCCTTGTAAGT; listed as DNA, chemistry not fully specified) [compound 305]	2.1583	4.9316
327 (guide CACTGGCTGGGGCTTGGTCA; listed as DNA, chemistry not fully specified) [compound 327]	1.8664	5.8386
335 (guide CAGATGAGAAGGCACAGACG; listed as DNA, chemistry not fully specified) [compound 335]		4.44
357 (guide CATGACCAAGCCCCAGCCAG; listed as DNA, chemistry not fully specified) [compound 357]	3.1523	6.2753
427 (guide CCGCAGGATTCAGCGCCGAC; listed as DNA, chemistry not fully specified) [compound 427]	3.4136	
450 (guide CCTGCGGACGACCCTTCTCG; listed as DNA, chemistry not fully specified) [compound 450]		4.242
451 (guide CCTGCTGCGAGCAAAACAAG; listed as DNA, chemistry not fully specified) [compound 451]	2.9406	5.3958

Substance	Log2 FC [1]	Log2 FC [2]
484 (guide CGCCGACGGGACGTAAACAA; listed as DNA, chemistry not fully specified) [compound 484]		3.3079
496 (guide CGGCTAGGAGTTCCGCAGTA; listed as DNA, chemistry not fully specified) [compound 496]	2.9031	7.3529
498 (guide CGGGGAGTCCGCGTAAAGAG; listed as DNA, chemistry not fully specified) [compound 498]		2.939
539 (guide CTGACGCAACCCCCACTGGC; listed as DNA, chemistry not fully specified) [compound 539]		3.1536
553 (guide CTGGCCGTTGCCGGGCAACG; listed as DNA, chemistry not fully specified) [compound 553]	2.4462	3.9905
560 (guide CTGTGCCTTGGGTGGCTTTG; listed as DNA, chemistry not fully specified) [compound 560]	2.7695	
591 (guide GAAGCGAAGTGCACACGGTC; listed as DNA, chemistry not fully specified) [compound 591]	4.4134	5.7107
612 (guide GACGCAACCCCCACTGGCTG; listed as DNA, chemistry not fully specified) [compound 612]	2.8035	6.7125
628 (guide GAGGTGAAGCGAAGTGCACA; listed as DNA, chemistry not fully specified) [compound 628]	3.2225	
650 (guide GATTGAATACATGCATACAA; listed as DNA, chemistry not fully specified) [compound 650]		3.726
657 (guide GCAAACACTTGGCACAGACC; listed as DNA, chemistry not fully specified) [compound 657]	1.9192	3.2226
735 (guide GGCACAGACCTGGCCGTTGC; listed as DNA, chemistry not fully specified) [compound 735]		4.08
750 (guide GGCTTCCCGATACAGAGCTG; listed as DNA, chemistry not fully specified) [compound 750]	4.6799	
762 (guide GGGCAACGGGGTAAAGGTTC; listed as DNA, chemistry not fully specified) [compound 762]		4.8522
788 (guide GGGTTGCGTCAGCAAACACT; listed as DNA, chemistry not fully specified) [compound 788]		4.4031
841 (guide GTGAAAAAGTTGCATGGTGC; listed as DNA, chemistry not fully specified) [compound 841]	2.0112	
872 (guide TAAAGACTGGGAGGAGTTGG; listed as DNA, chemistry not fully specified) [compound 872]	3.0933	
981 (guide TCTAGAAGATCTCGTACTGA; listed as DNA, chemistry not fully specified) [compound 981]	2.1673	
1033 (guide TGCGAGCAAAACAAGCGGCT; listed as DNA, chemistry not fully specified) [compound 1033]		3.1795
1068 (guide TGGTGAGGTGAACAATGCTC; listed as DNA, chemistry not fully specified) [compound 1068]	2.5736	
1104 (guide TTCCCGATACAGAGCTGAGG; listed as DNA, chemistry not fully specified) [compound 1104]	3.9205	
